Assay results published in patent US4346075A, “Antibiotic DC-11 and process for production thereof” (Kyowa Hakko Kogyo Co., Ltd., priority 1980, dated 1982).
≈ marks a conversion by molar mass, not a printed value.

Legend:
[1] = system: Sarcoma 180 ascites tumor; assay: effect on sarcoma 180 ascites tumor; format: in vivo, male ddY-strain mice; conditions: seven days after implantation
Protocol: Six male ddY-strain mice having a weight of 20 g are used for each group as test animals; and 5×10^6 cells of Sarcoma 180 ascites tumor are implanted in the animals. After 24 hours following implantation, 0.2 ml phosphate buffered saline (PBS) containing DC-11 in various concentrations is administered intraperitoneally. PBS comprises 0.8 g/dl NaCl, 0.02 g/dl KCl, […] Na2 HPO4, 0.02 g/dl KH2 PO4 (pH 7.2).
For comparison, 0.2 ml PBS solution containing mitomycin C is administered to a group of amimals intraperitoneally at the same time as the test compound.
Seven days after implantation, the average tumor volume (mm^3) and T/C (T: average tumor volume of test compound, C: that of control) are determined.

[2] = system: Lymphocytic leukemia P-388 tumor; assay: effect on Lymphocytic leukemia P-388 tumor; format: in vivo, male CDF1 mice; conditions: 24 hours following implantation
Protocol: Five male CDF1 mice having a weight of about 22 g are used for each group as test animals, and 1×10^6 cells of Lymphocytic leukemia P-388 tumor are implanted intraperitoneally in the test animals. Twenty-fours hours following implantation, 0.2 ml PBS solution containing DC-11 in various concentrations is administered intraperitoneally.
For comparison, 0.2 ml PBS solution containing mitomycin C is administered to a group of test animals intraperitoneally at the same time as the test compound.
The average survival period (ASP: days) and T/C (T: average survival days of the groups administered with test compound, C: average survival days of the control group) after implantation are shown in the following Table 6.

[3] = system: Bacillus subtilis No. 10707; assay: in vitro antibacterial spectrum, disc method (pH 8.0); format: cell-based; conditions: Bacillus subtilis No. 10707, disc method, read-out: Minimum Inhibitory Concentration (MIC)
Source text: (§1) The in vitro antibacterial spectra of DC-11 determined by the disc method (pH 8.0) is illustrated in the following Table 4.

[4] = system: Escherichia coli ATCC 26; assay: as above; format: cell-based; conditions: ATCC26, Escherichia coli ATCC 26, disc method, read-out: Minimum Inhibitory Concentration (MIC)
Source text: as §1

[5] = system: Klebsiella pneumoniae ATCC 10031; assay: as above; format: cell-based; conditions: ATCC10031, Klebsiella pneumoniae ATCC 10031, disc method, read-out: Minimum Inhibitory Concentration (MIC)
Source text: as §1

[6] = system: Salmonella typhosa ATCC 9992; assay: as above; format: cell-based; conditions: Salmonella enterica, pH 8, read-out: Minimum Inhibitory Concentration (MIC)
Source text: as §1

[7] = system: Shigella sonnei ATCC 9290; assay: as above; format: cell-based; conditions: ATCC9290, Shigella sonnei ATCC 9290, disc method, read-out: Minimum Inhibitory Concentration (MIC)
Source text: as §1

[8] = system: Staphylococcus aureus ATCC 6538 P; assay: as above; format: cell-based; conditions: ATCC6538, read-out: Minimum Inhibitory Concentration (MIC)
Source text: as §1

[9] = acute toxicity, intraperitoneal, mice; conditions: mouse, in vivo, ip, intraperitoneally
[10] = solubility; format: physicochemical

With `CO[C@@]12[C@H](COC(N)=O)C3=C(C(=O)C(C)=C(N)C3=O)N1C[C@@H]1N[C@@H]12` [Mitomycin C, mitomycin C, reference compound] the “T/C (average tumor volume of test compound / control)” value ([1]; 4.2 mg/Kg i.p.) was 0.32, the “V: average tumor volume” value ([1]; 4.2 mg/Kg i.p.) was 450 mm^3 and the “T/C (average survival days, test group / control group)” value ([2]; 4.2 mg/Kg i.p.) was 1.51. The “average survival period (ASP)” value ([2]; 4.2 mg/Kg i.p.) was 14.2 days.

`COC(=O)NC1C(C)OC(OC2CC=C(C)C3C=CC4C(OC5CC(OC6CCC(OC7CC(O)C(OC8CCC(O)C(C)O8)C(C)O7)C(C)O6)C(OC(C)=O)C(C)O5)C(C)CC(C)C4C3(C)C(=O)C3=C(O)C4(CC(C=O)=CC(O)C4C=C2C)OC3=O)CC1(C)[N+](=O)[O-]` (centres unmarked) [DC-11] showed an MIC [3] of 0.1 µg/mL (≈ 0.0761 µM), an MIC [4] greater than 100 µg/mL and an MIC [5] greater than 100 µg/mL. It also gave an MIC [6] greater than 100 µg/mL, an MIC [7] greater than 100 µg/mL and an MIC [8] of 20 µg/mL (≈ 15.2 µM). For the same compound, the LD50 [9] was 54 mg/kg, the “T/C (average tumor volume of test compound / control)” value ([1]; 25 mg/Kg i.p.) was 0.78 and the “V: average tumor volume” value ([1]; 25 mg/Kg i.p.) was 1096 mm^3. The “T/C (average tumor volume of test compound / control)” value ([1]; 50 mg/Kg i.p.) was 0.52, the “V: average tumor volume” value ([1]; 50 mg/Kg i.p.) was 730 mm^3 and the “T/C (average tumor volume of test compound / control)” value ([1]; 70 mg/Kg i.p.) was 0.42. The “V: average tumor volume” value ([1]; 70 mg/Kg i.p.) was 590 mm^3, the “T/C (average survival days, test group / control group)” value ([2]; 6.25 mg/Kg i.p.) was 1.20 and the “average survival period (ASP)” value ([2]; 6.25 mg/Kg i.p.) was 11.2 days. For the same compound, the “T/C (average survival days, test group / control group)” value ([2]; 12.5 mg/Kg i.p.) was 1.43, the “average survival period (ASP)” value ([2]; 12.5 mg/Kg i.p.) was 13.4 days and the “T/C (average survival days, test group / control group)” value ([2]; 25.0 mg/Kg i.p.) was 1.38. For the same compound, the “average survival period (ASP)” value ([2]; 25.0 mg/Kg i.p.) was 13.0 days, the Solubility ([10]; benzene and water) was “slightly soluble” and the Solubility ([10]; ethylether, petroleum ether and n-hexane) was “insoluble”. The Solubility ([10]; methanol, ethanol, butanol, acetone, ethyl acetate and chloroform) was “soluble”.
